According to patent publication US11266711B2, “Oxytocin compositions and methods of use” (Elgan Pharma Ltd, priority 2018, dated 2022):
Where a name gives a salt, the structure may show the parent alone. Numbered stars: 1 amine (or outer) side, 2 acyl side, 3 side chain; on linkers, the order of the positions; unused ones are H or OH. Bridge positions count the residues as written; N and C are the ends. Peptide text beside a SMILES is read from it. X1 = O=C(CCC[*:2])[*:1]

How the values were obtained:
oxytocin receptor [1] = target: T1, oxytocin receptor (Homo sapiens, UniProt P30559); conditions: cited from earlier work
oxytocin receptor [2] = target: T1, oxytocin receptor; conditions: cited from earlier work; remark: listed apart in the source
[3] = cited from earlier work
[4] = tested on: adolescent rats chronically exposed to morphine prenatally; assay: Light-Dark Box, adolescent rats exposed to morphine prenatally (Example 8); assay type: in vivo; conditions: 0.3 mg/kg s.c. daily, first 10 postnatal days; tested postnatal days 31-35; vs saline (FIG. 8a)
[5] = tested on: rat pups chronically exposed to morphine prenatally; assay type: in vivo, Sprague-Dawley rats; conditions: all three doses (0.3, 1, 2 mg/kg) s.c. daily, first 10 postnatal days; vs saline (FIG. 6a)
[6] = tested on: adolescent rats chronically exposed to diazepam prenatally; assay: Light-Dark Box, adolescent rats exposed to diazepam prenatally (Example 12); conditions: 1 mg/kg and 2 mg/kg s.c., first 10 postnatal days; tested postnatal days 31-35; vs saline (FIG. 12a)
[7] = tested on: rat pups chronically exposed to morphine prenatally; assay type: in vivo, Sprague-Dawley rats; conditions: 2 mg/kg s.c. daily, first 10 postnatal days; survival measured for 15 days; vs saline (FIG. 2a)
[8] = tested on: rat pups chronically exposed to diazepam prenatally; conditions: 2 mg/kg s.c. daily, first 10 postnatal days
[9] = tested on: adolescent rats chronically exposed to morphine prenatally; assay: Passive Avoidance Test, adolescent rats exposed to morphine prenatally (Example 8); assay type: in vivo; conditions: 2 mg/kg s.c. daily, first 10 postnatal days; tested postnatal days 31-35; vs saline (FIG. 8b)
[10] = tested on: adolescent rats chronically exposed to diazepam prenatally; assay: Automated Three-Chamber Test, adolescent rats exposed to diazepam prenatally (Example 13); assay type: in vivo; conditions: first 10 postnatal days, tested postnatal days 31-35
Excerpt: (§1) Briefly, the Three-Chamber Test assesses cognition in the form of social novelty and social memory; Social novelty occurs in three sessions within a three-chambered box with openings between the chambers. After habituation to the empty box, the test animal encounters a novel conspecific under one pencil cup and an empty pencil cup. The test animal then encounters the familiar conspecific and a second novel conspecific under the previously empty pencil cup; Animals that show intact social novelty behavior will show a preference to investigate the novel conspecific; Twenty-four hours later, social memory is tested by placing the test animal back in to the chamber with the two familiar conspecifics; Animals with intact social memory will spend an equal amount of time investigating the two familiar conspecifics. Duration of time spent investigating conspecifics is measured automatically using a SmartCage™.

[11] = tested on: adolescent rats chronically exposed to fluoxetine prenatally; assay: Light/Dark Box, adolescent rats exposed to fluoxetine prenatally (Example 5); assay type: in vivo; conditions: 2 mg/kg s.c. daily, first 10 postnatal days; tested postnatal days 31-35; vs saline (data not shown)
healthy rats = assay: Survival and body weight during development in healthy rats (Example 14); assay type: in vivo, Sprague-Dawley rats; conditions: 0.3, 1 or 2 mg/kg daily, first 10 postnatal days; drug naive pups
[12] = tested on: adolescent rats chronically exposed to diazepam prenatally; assay: Passive Avoidance Test, adolescent rats exposed to diazepam prenatally (Example 12); conditions: all doses (0.3, 1, 2 mg/kg) s.c., first 10 postnatal days; tested postnatal days 31-35; vs saline (FIG. 12b)
Excerpt: Briefly, in the Passive Avoidance Test an animal learns to avoid an unpleasant stimulus by inhibiting locomotion and exploration; On the training day, rats are placed in a brightly lit compartment of a test chamber; The animal quickly moves in to an adjacent dark compartment of the test chamber and receives an unavoidable mild foot shock; Twenty-four hours later during the test phase, the animals are again placed in to the light compartment and the latency to re-enter the dark compartment is measured. Latency to enter a compartment is automatically measured using a SmartCage™.

[13] = tested on: rat pups chronically exposed to diazepam prenatally; assay: Survival and body weight, three oxytocin doses, rat pups exposed to diazepam prenatally (Example 10); conditions: first 10 postnatal days
[14] = tested on: adolescent rats chronically exposed to fluoxetine prenatally; assay: Locomotor activity, adolescent rats exposed to fluoxetine prenatally (Example 5); assay type: in vivo; conditions: 2 mg/kg s.c. daily, first 10 postnatal days; tested postnatal days 31-35; vs saline (data not shown)
[15] = tested on: rat pups chronically exposed to diazepam prenatally; assay: Locomotor activity during withdrawal, rats exposed to diazepam prenatally (Example 11)
Experimental: Briefly, locomotor activity is measured by placing an animal in to a small standardized test chamber for a five-minute period. Distance travelled, and time spent active is measured automatically using a SmartCage™.

[16] = tested on: rat pups chronically exposed to morphine prenatally; assay: Locomotor activity during withdrawal, rats exposed to morphine prenatally (Example 7); assay type: in vivo
[17] = tested on: adolescent rats chronically exposed to morphine prenatally; assay: Automated Three-Chamber Test, adolescent rats exposed to morphine prenatally (Example 9); assay type: in vivo; conditions: first 10 postnatal days, tested postnatal days 31-35
Excerpt: as §1

[18] = tested on: rat pups chronically exposed to fluoxetine prenatally; assay: Survival and body weight, rat pups exposed to fluoxetine prenatally (Example 4); assay type: in vivo, Sprague-Dawley rats; conditions: 2 mg/kg s.c. daily
[19] = tested on: adolescent rats chronically exposed to fluoxetine prenatally; assay: Passive Avoidance Test, adolescent rats exposed to fluoxetine prenatally (Example 5); assay type: in vivo; conditions: 2 mg/kg s.c. daily, first 10 postnatal days; tested postnatal days 31-35; vs saline (FIG. 5)
[20] = tested on: rat pups chronically exposed to morphine prenatally; assay: Naloxone-induced withdrawal in rat pups exposed to morphine prenatally (Example 1); assay type: in vivo, Sprague-Dawley rats
[21] = tested on: infants of mothers who took the drug during the first 42 days of pregnancy; conditions: mothers took the drug during the first 42 days of pregnancy; other drugs 4.6 per 100, no drugs 2.6 per 100; cited from earlier work
[22] = 1 or 2 mg/kg s.c. daily, vs saline (FIG. 7a)

T1 sequence (P30559 whole entry, species assumed): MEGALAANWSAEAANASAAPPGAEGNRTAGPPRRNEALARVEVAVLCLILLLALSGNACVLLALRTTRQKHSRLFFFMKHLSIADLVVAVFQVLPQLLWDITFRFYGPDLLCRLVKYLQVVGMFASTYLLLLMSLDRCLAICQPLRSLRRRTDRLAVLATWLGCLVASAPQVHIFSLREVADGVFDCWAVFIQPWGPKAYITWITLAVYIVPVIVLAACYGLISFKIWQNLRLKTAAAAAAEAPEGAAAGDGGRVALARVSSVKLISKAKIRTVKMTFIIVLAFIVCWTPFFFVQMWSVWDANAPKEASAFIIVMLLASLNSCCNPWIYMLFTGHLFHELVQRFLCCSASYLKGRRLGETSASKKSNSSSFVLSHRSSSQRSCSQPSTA

Structure (SMILES): CC[C@H](C)[C@@H]1NC(=O)[C@H](Cc2ccc(OC)cc2)NC(=O)CCCSC[C@@H](C(=O)N2CCC[C@H]2C(=O)N[C@@H](CC(C)C)C(=O)NCC(N)=O)NC(=O)[C@H](CC(N)=O)NC(=O)[C@H](CCC(N)=O)NC1=O [carbetocin, 1-Butanoic acid-2-(O-methyl-L-tyrosine)-1-carbaoxytocin] (Y(Me)IQNCPLG-NH2; linker N-5 via X1)
- affinity of the oxytocin receptor, compared with oxytocin (oxytocin receptor [1]): equal affinity
- biological effect relative to endogenous or exogenous oxytocin (oxytocin receptor [2]): ~50%

Structure (SMILES): O=C1Nc2ccc(Cl)cc2C(c2ccccc2Cl)=NC1O (centres unmarked) [Lorazepam]
- half-life in adults ([3]; adults): about 12 hours

Structure (SMILES): CC[C@H](C)[C@@H]1NC(=O)[C@H](Cc2ccc(O)cc2)NC(=O)[C@@H](N)CSSC[C@@H](C(=O)N2CCC[C@H]2C(=O)N[C@@H](CC(C)C)C(=O)NCC(N)=O)NC(=O)[C@H](CC(N)=O)NC(=O)[C@H](CCC(N)=O)NC1=O [oxytocin]
- anxiety-like behavior (time in the light chamber) [4]: clear statistically significant decrease
- percentage survival rates for the first 30 postnatal days [5]: clear statistically significant improvement
- anxiety-like behavior (time in the light chamber) [6]: clear statistically significant reduction
- percentage survival rates [7]: clear statistically significant improvement
- percentage survival rates ([8]; survival measured for 15 days, vs saline (FIG. 3a)): clear statistically significant improvement
- body weight, various time points of the dosing period ([8]; vs saline (FIG. 3b)): clear statistically significant increase
- body weight at postnatal day 31 ([8]; vs saline (FIG. 3c)): clear statistically significant decrease
- learning and memory function (latency to enter chamber paired with foot shock) [9]: numerical improvement
- social memory function (time investigating a familiar conspecific) ([10]; 2 mg/kg s.c. daily, vs saline (FIG. 13b)): statistical trend toward improved social memory function
- social novelty behavior (time investigating a novel animal) ([10]; 1 and 2 mg/kg s.c. daily, vs saline (FIG. 13a)): clear statistically significant increase
- anxiety-like behavior [11]: No meaningful differences
- survival for the first 30 postnatal days (healthy rats): survived for the first 30 postnatal days
- learning and memory function (latency to enter chamber paired with foot shock) [12]: clear statistically significant improvement
- percentage survival rates for the first 30 postnatal days ([13]; 2 mg/kg s.c. daily, vs saline (FIG. 10a)): clear statistically significant improvement
- body weight throughout the first 30 postnatal days ([13]; all three doses (0.3, 1, 2 mg/kg) s.c. daily, vs saline (FIG. 10b)): clear statistically significant decrease
- locomotor activity [14]: No meaningful differences
- locomotor activity on postnatal day 6 ([15]; 0.3 mg/kg and 2 mg/kg s.c. daily, vs saline (FIG. 11a)): clear statistically significant decrease
- locomotor activity on postnatal day 30 ([15]; 2 mg/kg s.c. daily, first 10 postnatal days, vs saline (FIG. 11b)): clear statistically significant decrease
- locomotor activity on postnatal day 9 ([15]; 2 mg/kg s.c. daily, vs saline (FIG. 11a)): clear statistically significant decrease
- locomotor activity on postnatal days 3 and 6 ([15]; all three doses (0.3, 1, 2 mg/kg) s.c. daily, vs saline): clear statistically significant decrease
- locomotor activity at postnatal day 30 ([16]; 0.3, 1 or 2 mg/kg s.c. daily, first 10 postnatal days, between treatment groups (FIG. 7b)): No meaningful differences
- locomotor activity on postnatal day 6 [16, 22]: clear statistically significant increase
- locomotor activity on postnatal days 3 or 9 [16, 22]: not on postnatal days 3 or 9
- social memory function (time investigating a familiar conspecific) ([17]; 2 mg/kg s.c. daily, vs saline (FIG. 9b)): statistical trend towards improved social memory function
- social novelty behavior (time investigating a novel conspecific) ([17]; all doses (0.3, 1, 2 mg/kg) s.c. daily, vs saline (FIG. 9a)): trend towards increased social novelty behavior
- percentage survival rates ([18]; first 10 postnatal days, survival measured for 15 days, vs saline (FIG. 4a)): statistical trend towards improvement
- body weight at postnatal day 36 ([18]; first 10 postnatal days, vs saline (FIG. 4c)): clear statistically significant reduction
- body weights during the first 10 postnatal days ([18]; vs saline (FIG. 4b)): comparable
- learning and memory function (latency to enter chamber paired with foot shock) [19]: clear statistically significant improvement
- locomotor activity ([20]; single dose 2 mg/kg s.c. after naloxone, postnatal day one, up to 30 minutes post-naloxone, vs saline (FIG. 1a)): clear statistically significant reduction
- scores of rolling behavior ([20]; single dose 2 mg/kg s.c., up to 45 minutes, vs saline (FIG. 1b)): numerical reduction
- scores of curling behavior ([20]; single dose 2 mg/kg s.c., up to 45 minutes, vs saline (FIG. 1c)): numerical reduction
- percentage survival rates at postnatal day 10 ([20]; single dose 2 mg/kg s.c., vs saline (FIG. 1d)): improved percentage survival rates

Structure (SMILES): CNC1=Nc2ccc(Cl)cc2C(c2ccccc2)=[N+]([O-])C1 [chlordiazepoxide, Chlordiazepoxide hydrochloride]
- severe congenital anomalies among infants [21]: 11.4 per 100

Structure (SMILES): Cc1nnc2n1-c1ccc(Cl)cc1C(c1ccccc1)=NC2 [Alprazolam]
- half-life ([3]; in vivo): ten to 24
